Laboratory results taken from PMC7727669, “Platinum(II) Complexes with Bulky Disubstitute Triazolopyrimidines as Promising Materials for Anticancer Agents” (Materials, 2020).
Read-outs that look alike come from different tables or passages of the source.

Assays:
[1] = cited from earlier work
[2] = system: normal murine embryonic fibroblast cells (BALB/3T3); experiment: In vitro toxicity against normal fibroblasts, SRB test, BALB/3T3; format: cell-based; settings: BALB/3T3 normal cells, 72 h incubation, average of three determinations
Description: Cells were plated in 96-well sterile plates (Sarstedt, Costar) at a density of 10^4 cells per well (in 100 μL of culture medium) and incubated for 24 h. The tested compound was added in final concentrations ranging from 0.1 to 100 μg mL^−1, and the incubation was continued for an additional 72 h. […] IC50 values are expressed as the averages of three independently reproduced experiments. The details of this technique were described by Skehan. The tests of the antiproliferative activity in vitro against both cell lines were performed with the SRB (sulforhodamine B) test using an automated microplate reader (Synergy H4 photometer, BioTek Instruments Inc., Winooski, VT, USA). Moreover, in vitro toxicity against normal murine fibroblast Balb3T3 cells was assessed.

[3] = system: cisplatin-resistant human ductal breast epithelial tumor cells (T47D); experiment: In vitro antiproliferative activity, SRB test, T47D; format: cell-based; settings: 72 h incubation, average of three determinations
Description: (§1) The in vitro antiproliferative activity against three human tumor cell lines, namely, non-small cell lung carcinoma (A549) (ATCC, Rockville, MD, USA), […] human ductal breast epithelial tumor cells (T47D) (ATCC, Rockville, MD, USA) and colon cancer cells (LOVO) (ATCC, Rockville, MD, USA), and normal murine embryonic fibroblast cells (BALB/3T3) (ATCC, Rockville, MD, USA), was assessed.
(§2) Cells were plated in 96-well sterile plates (Sarstedt, Costar) at a density of 10^4 cells per well (in 100 μL of culture medium) and incubated for 24 h. The tested compound was added in final concentrations ranging from 0.1 to 100 μg mL^−1, and the incubation was continued for an additional 72 h. The results of in vitro cytotoxic activity are expressed as an IC50 (the dose of compound (in μM) that inhibits proliferation rate of tumor cells by 50%) value compared to the untreated control cells. IC50 values are expressed as the averages of three independently reproduced experiments. The details of this technique were described by Skehan. The tests of the antiproliferative activity in vitro against both cell lines were performed with the SRB (sulforhodamine B) test using an automated microplate reader (Synergy H4 photometer, BioTek Instruments Inc., Winooski, VT, USA). Moreover, in vitro toxicity against normal murine fibroblast Balb3T3 cells was assessed.

[4] = system: non-small cell lung carcinoma (A549); experiment: In vitro antiproliferative activity, SRB test, A549; format: cell-based, human; settings: A549, 72 h incubation, average of three determinations
Description: as §1, §2

[5] = system: colon cancer cells (LOVO); experiment: In vitro antiproliferative activity, SRB test, LoVo; format: cell-based, human; settings: 72 h incubation, average of three determinations
Description: as §1, §2

[6] = system: human ovarian carcinoma cell lines resistant to cisplatin (A2780R); parameters: method as in PMID 19783310; settings: read-out: in vitro activity against A2780R; cited from earlier work
[7] = Partition coefficient (logP), shake-flask method; format: physicochemical; settings: n-octanol / aqueous 0.9% NaCl, UV-Vis
Description: The lipophilicity (logP) of the platinum(II) compounds was determined using the shake–flask method. At first, aqueous (0.9% w/v) sodium chloride and organic (n–octanol) phases were saturated for 1 week. […] An equal volume of immiscible solvent was added, and the solutions were mixed mechanically in plastic tubes for 30 min. Samples were centrifuged (6000 rpm, 15 min). After separation, the phases were analyzed by UV–Vis spectroscopy to determine the amount of the compound in each phase. The absorption values before and after shaking were compared, and based on the Lambert–Beer law, the partition coefficient in both phases for each compound was calculated to determine the logP values. The procedures were repeated threefold.

Compound | log P ([1]; literature data for platinum(II) drugs) | IC50 [2] [µM] | IC50 [3] [µM] | IC50 [4] [µM] | IC50 [5] [µM] | IC50 [6] [µM] | logP ([1]; symmetrical malonato complexes, previous work) | log P [7]
N.N.O=C([O-])C1(C(=O)[O-])CCC1.[Pt+2] [carboplatin] | −2.30 |  |  |  |  |  |  | 
N.N.[Cl][Pt][Cl] [cisplatin, reference compound] |  | 3.2 ± 1.5 | 3.11 ± 1.2 | 9 ± 1.1 | 0.84 ± 0.3 | 20.4 |  | 
CC(C)(C)c1cc(C(C)(C)C)n2ncnc2n1.CC(C)(C)c1cc(C(C)(C)C)n2ncnc2n1.O=C([O-])CC(=O)[O-].[Pt+2] [[Pt(mal)(dbtp)2]] |  |  |  |  |  |  | 2.07 | 
(Dimethylsulfoxide-κS)(5,7-ditertbutyl-1,2,4-triazolo[1,5-a]pyrimidine-κN(3))(malonato-κ^2O,O′) platinum(II) [Complex 1] |  | 30.2 ± 22.6 | 17.1 ± 10.5 | 16.3 ± 9.9 | 27.9 ± 1 |  |  | −1.58
(Dimethylsulfoxide-κS)(7-isobutyl-5-methyl-1,2,4-triazolo[1,5-a]pyrimidine-κN(3))(cyclo- butane-1,1-dicarboxylato-κ^2O,O′))platinum(II) monoaqua hydrate [Complex 4] |  | 73.4 ± 29.7 | 21.9 ± 17.2 | 57.3 ± 11.3 | 41.2 ± 1.6 |  |  | −1.23
(Dimethylsulfoxide-κS)(5,7-ditertbutyl-1,2,4-triazolo[1,5-a]pyrimidine-κN(3))(cyclobutane-1,1- dicarboxylato-κ^2O,O′))platinum(II) monoaqua hydrate [Complex 3] |  | 10.2 ± 6.2 | 6.6 ± 4.8 | 5 ± 0.9 | 20 ± 2.8 |  |  | −1.69
(Dimethylsulfoxide-κS)(7-isobutyl-5-methyl-1,2,4-triazolo[1,5-a]pyrimidine-κN(3))(malonato- κ^2O,O′)platinum(II) monoaqua hydrate [Complex 2] |  | 46 ± 40.7 | 42.6 ± 19 | 57.8 ± 13.5 | 38.4 ± 1.8 |  |  | −0.65
